Reference: ChEMBL document CHEMBL1201862, “PubChem BioAssay data set” (2004)
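Compound exposure: 48 hours, 5 concentrations, 96-well plates. Abbreviation: GI50, concentration required for 50% inhibition of growth.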 Activity calls are given as the source filed them. No stated cut-off is given here; in the data, active = GI50 up to about 1.1 µM and inactive = higher.

Key:
Assay in all cases: growth of human tumour cells (NCI), 48 h
NCI-H522 = system: NCI-H522
TK-10 = system: TK-10
UO-31 = system: UO-31
NCI-H226 = system: NCI-H226
A498 = system: A498
OVCAR-3 = system: OVCAR-3
M14 = system: M14
CAKI-1 = system: CAKI-1
HCC 2998 = system: HCC 2998
HL-60 = system: HL-60
SK-MEL-28 = system: SK-MEL-28
SK-OV-3 = system: SK-OV-3
KM-20L2 = system: KM-20L2
UACC-257 = system: UACC-257
DMS-273 = system: DMS-273
NCI-H460 = system: NCI-H460
SNB-78 = system: SNB-78
SN12C = system: SN12C
KM12 = system: KM12
MOLT-4 = system: MOLT-4
U-251 = system: U-251
LOX IMVI = system: LOX IMVI
SF-295 = system: SF-295
UACC-62 = system: UACC-62
EKVX = system: EKVX
COLO 205 = system: COLO 205
RPMI-8226 = system: RPMI-8226
OVCAR-5 = system: OVCAR-5
RXF 393 = system: RXF 393
NCI-H23 = system: NCI-H23
ACHN = system: ACHN
OVCAR-4 = system: OVCAR-4
HOP-62 = system: HOP-62
SF-539 = system: SF-539
HT-29 = system: HT-29
SK-MEL-5 = system: SK-MEL-5
HCT-15 = system: HCT-15
786-0 = system: 786-0
SNB-19 = system: SNB-19
SR = system: SR
Malme-3M = system: Malme-3M
K562 = system: K562
DMS-114 = system: DMS-114
SW-620 = system: SW-620
M19-MEL = system: M19-MEL
CCRF-CEM = system: CCRF-CEM
HCT-116 = system: HCT-116
SNB-75 = system: SNB-75
A549 = system: A549
SK-MEL-2 = system: SK-MEL-2
SF-268 = system: SF-268
IGROV-1 = system: IGROV-1
OVCAR-8 = system: OVCAR-8
MCF7 = system: MCF7
DLD-1 = system: DLD-1
Hs-578T = system: Hs-578T
DU-145 = system: DU-145
MDA-N = system: MDA-N
BT-549 = system: BT-549
PC-3 = system: PC-3
MDA-MB-231 = system: MDA-MB-231
HOP-92 = system: HOP-92
T47D = system: T47D
NCI/ADR-RES = system: NCI/ADR-RES
MDA-MB-435 = system: MDA-MB-435

`O=C(/N=c1/[nH]/c(=N/C(=O)c2ccccc2)ss1)c1ccccc1` was tested, and the GI50 (NCI-H522) was 5.78 µM (inactive), the GI50 (TK-10) was 26.1 µM (inactive) and the GI50 (UO-31) was 18.5 µM (inactive). For the same compound, the GI50 (NCI-H226) was 38.8 µM (inactive), the GI50 (A498) was 23.4 µM (inactive) and the GI50 (OVCAR-3) was 13.1 µM (inactive). For the same compound, the GI50 (M14) was 27.9 µM (inactive), the GI50 (CAKI-1) was 30.3 µM (inactive) and the GI50 (HCC 2998) was 18 µM (inactive). The GI50 (HL-60) was 14.7 µM (inactive), the GI50 (SK-MEL-28) was 23.9 µM (inactive) and the GI50 (SK-OV-3) was 34.7 µM (inactive). For the same compound, the GI50 (KM-20L2) was 29.5 µM (inactive), the GI50 (UACC-257) was 14.6 µM (inactive) and the GI50 (DMS-273) was 23.1 µM (inactive). For the same compound, the GI50 (NCI-H460) was 16.6 µM (inactive), the GI50 (SNB-78) was 48.1 µM (inactive) and the GI50 (SN12C) was 16.5 µM (inactive). The GI50 (KM12) was 27.7 µM (inactive), the GI50 (MOLT-4) was 24.7 µM (inactive) and the GI50 (U-251) was 7.55 µM (inactive). For the same compound, the GI50 (LOX IMVI) was 23900 nM (inactive), the GI50 (SF-295) was 18 µM (inactive) and the GI50 (UACC-62) was > 10 µM (inactive). For the same compound, the GI50 (EKVX) was 25.4 µM (inactive), the GI50 (COLO 205) was 22.9 µM (inactive) and the GI50 (RPMI-8226) was 6.35 µM (inactive). For the same compound, the GI50 (OVCAR-5) was 31.7 µM (inactive), the GI50 (RXF 393) was 29.7 µM (inactive) and the GI50 (NCI-H23) was 19.3 µM (inactive). For the same compound, the GI50 (ACHN) was 13.8 µM (inactive), the GI50 (OVCAR-4) was 38.1 µM (inactive) and the GI50 (HOP-62) was 21.9 µM (inactive). The GI50 (SF-539) was 12.9 µM (inactive), the GI50 (HT-29) was 16.6 µM (inactive) and the GI50 (SK-MEL-5) was 5.11 µM (inactive). The GI50 (HCT-15) was 21.4 µM, the GI50 (786-0) was 25.5 µM (inactive) and the GI50 (SNB-19) was 33.5 µM (inactive). For the same compound, the GI50 (SR) was 24 µM (inactive), the GI50 (Malme-3M) was 9.89 µM (inactive) and the GI50 (K562) was 20.4 µM (inactive). For the same compound, the GI50 (DMS-114) was 26.7 µM (inactive), the GI50 (SW-620) was 25.5 µM (inactive) and the GI50 (M19-MEL) was 33.6 µM (inactive). The GI50 (CCRF-CEM) was 16 µM (inactive), the GI50 (HCT-116) was 28.8 µM (inactive) and the GI50 (SNB-75) was 38.6 µM (inactive). For the same compound, the GI50 (A549) was 11.4 µM (inactive), the GI50 (SK-MEL-2) was 19.4 µM (inactive) and the GI50 (SF-268) was 25.8 µM (inactive). The GI50 (IGROV-1) was 6.64 µM (inactive) and the GI50 (OVCAR-8) was 27.3 µM (inactive).
With `COc1ccc2c3c(c4cc(OC)c(OC)cc4c2c1)C[C@H]1CCCCN1C3` [CRYPTOPLEURINE] the GI50 (MCF7) was 0.005 µM (active), the GI50 (SK-OV-3) was 0.005 µM (active) and the GI50 (SNB-78) was 0.005 µM (active). The GI50 (U-251) was 0.005 µM (active), the GI50 (LOX IMVI) was 5 nM (active) and the GI50 (DLD-1) was 5 nM (active). The GI50 (OVCAR-4) was 0.005 µM (active), the GI50 (HT-29) was 0.005 µM (active) and the GI50 (HCT-116) was 0.005 µM (active). The GI50 (OVCAR-8) was 0.005 µM (active).
In the case of `BrCCC[P+](c1ccccc1)(c1ccccc1)c1ccccc1`, the GI50 (NCI-H522) is reported as 3.34 µM (inactive), the GI50 (TK-10) is reported as 80.9 µM (inactive) and the GI50 (UO-31) is reported as > 100 µM (inactive). For the same compound, the GI50 (NCI-H226) was > 78.7 µM (inactive), the GI50 (Hs-578T) was 15.5 µM (inactive) and the GI50 (MCF7) was 6.22 µM (inactive). For the same compound, the GI50 (A498) was 49.5 µM (inactive), the GI50 (OVCAR-3) was 3.44 µM (inactive) and the GI50 (M14) was 11.8 µM (inactive). For the same compound, the GI50 (DU-145) was 32.7 µM (inactive), the GI50 (MDA-N) was 8.2 µM (inactive) and the GI50 (CAKI-1) was > 100 µM (inactive). The GI50 (BT-549) was 8.39 µM (inactive), the GI50 (HCC 2998) was > 68.4 µM (inactive) and the GI50 (HL-60) was 1.18 µM (inactive). For the same compound, the GI50 (SK-MEL-28) was 19 µM (inactive), the GI50 (PC-3) was 5.65 µM (inactive) and the GI50 (SK-OV-3) was 83.4 µM (inactive). For the same compound, the GI50 (UACC-257) was 2.71 µM (inactive), the GI50 (NCI-H460) was 15.2 µM (inactive) and the GI50 (SN12C) was 23.1 µM (inactive). The GI50 (KM12) was 5.06 µM (inactive), the GI50 (MOLT-4) was 9.66 µM (inactive) and the GI50 (U-251) was 6.32 µM (inactive). The GI50 (LOX IMVI) was 736 nM (active), the GI50 (SF-295) was 40.8 µM (inactive) and the GI50 (UACC-62) was 14 µM (inactive). For the same compound, the GI50 (EKVX) was 14.4 µM (inactive), the GI50 (COLO 205) was 1.61 µM (inactive) and the GI50 (RPMI-8226) was 0.615 µM (active). The GI50 (OVCAR-5) was 56.1 µM (inactive), the GI50 (RXF 393) was 2.89 µM (inactive) and the GI50 (NCI-H23) was 12.3 µM (inactive). The GI50 (ACHN) was > 100 µM (inactive), the GI50 (OVCAR-4) was 31.3 µM (inactive) and the GI50 (HOP-62) was 11.3 µM (inactive). For the same compound, the GI50 (SF-539) was 8.47 µM (inactive), the GI50 (HT-29) was 15.9 µM (inactive) and the GI50 (SK-MEL-5) was 6.27 µM (inactive). The GI50 (HCT-15) was over 100 µM, the GI50 (786-0) was 13.5 µM (inactive) and the GI50 (SNB-19) was 16.6 µM (inactive). For the same compound, the GI50 (SR) was 3.83 µM (inactive), the GI50 (Malme-3M) was 16.2 µM (inactive) and the GI50 (K562) was 3.16 µM (inactive). For the same compound, the GI50 (MDA-MB-231) was 8.13 µM (inactive), the GI50 (SW-620) was 25.5 µM (inactive) and the GI50 (CCRF-CEM) was > 30.5 µM (inactive). The GI50 (HCT-116) was 1.64 µM (inactive), the GI50 (HOP-92) was 8 µM (inactive) and the GI50 (SNB-75) was 12 µM (inactive). For the same compound, the GI50 (T47D) was 5.85 µM (inactive), the GI50 (NCI/ADR-RES) was > 100 µM (inactive) and the GI50 (A549) was 25.6 µM (inactive). For the same compound, the GI50 (MDA-MB-435) was 4.61 µM (inactive), the GI50 (SK-MEL-2) was 26.7 µM (inactive) and the GI50 (SF-268) was 16.7 µM (inactive). For the same compound, the GI50 (IGROV-1) was 5.45 µM (inactive) and the GI50 (OVCAR-8) was 12.4 µM (inactive).
